From patent publication US11851410B2, “Sensors for detection of negatively charged phosphate-containing membranes and membrane components” (THE GOVERNING COUNCIL OF THE UNIVERSITY OF TORONTO, priority 2017, dated 2023)

Tests used:
[1] = test system: POPG (PG) negatively charged vesicles; test: Serial dilution vesicle fluorescence intensity experiments, PG vesicles; format: binding; conditions: sensor 25 μM (PSVue™380 1 μM), 50 mM HEPES, 5% DMSO, pH 7.5
Source text: (§1) The following equations were used for the calculations: […]

[2] = test system: E. coli K-12 BW25113 cells; test: Proof-of-concept E. coli titration (fluorometry); format: cell-based; conditions: sensor 10 μM; 50 mM HEPES, 75 mM NaCl, 1% BSA, 0.4% DMSO, pH 7.5
[3] = test system: E. coli K-12 BW25113 cells; conditions: 40 μM sensor; 10^7-10^8 CFU/mL
Method: E. coli K-12 BW25113 cells were grown overnight in M9 minimal media and then harvested the following morning. Cells were then washed (spun at 5000 rpm for 10 min/wash) three times in buffer (50 mM HEPES, 75 mM NaCl, 1% BSA, 0.4% DMSO, pH 7.5). Cell concentrations were then determined using OD600 and cell samples were diluted to the appropriate concentrations.
Samples were run at the Flow Cytometry Facility, Medical Sciences Building, University of Toronto, on a BD LSR Fortessa X20 using the UV laser (emission: 450/50 nm) with low flow rate (15 uL sample/min) for 2 min.
Sample run using UV laser (BD LSR Fortessa X20, emission: 450/50 nm) in 50 mM HEPES, 75 mM NaCl, 1% BSA, 0.4% DMSO, pH 7.5. […] Sample run using UV laser (BD LSR Fortessa X20, emission: 450/50 nm) in 50 mM HEPES, 75 mM NaCl, 1% BSA, 0.4% DMSO, pH 7.5. […] Sample run using UV laser (BD LSR Fortessa X20, emission: 450/50 nm) in 50 mM HEPES, 75 mM NaCl, 1% BSA, 0.4% DMSO, pH 7.5. […] Sample run using UV laser (BD LSR Fortessa X20, emission: 450/50 nm) in 50 mM HEPES, 75 mM NaCl, 1% BSA, 0.4% DMSO, pH 7.5. […] Sample run using UV laser (BD LSR Fortessa X20, emission: 450/50 nm) in 50 mM HEPES, 75 mM NaCl, 1% BSA, 0.4% DMSO, pH 7.5.

[4] = test system: negatively charged vesicles (PA, PS, PG, CL); test: Vesicle fluorescence intensity experiments, all negatively charged vesicles; format: binding
Method: (§2) Small Unilamellar Vesicles (SUVs) were prepared by the extrusion method. Appropriate amounts of lipid in the desired proportions were weighed out to create 10 mM liposome suspensions. The lipids were then dissolved in a minimum amount of chloroform and vortexed to ensure thorough mixing. The excess solvent was then dried off under a gentle stream of nitrogen and allowed to dry overnight in a vacuum dessicator to remove any remaining traces of solvent. The resulting lipid film was then hydrated with 2 mL of HEPES buffer (50 mM HEPES, pH 7.5) for 1 h. The sample was then subjected to five cycles of freeze-thaw-vortex, cycling between liquid nitrogen and a 60° C. water bath. The resulting suspension of multilamellar vesicles (MLVs) was then extruded 25 times through a 0.1 μm polycarbonate membrane installed in a mini-extruder (Avanti Polar Lipids, Alabaster, AL) to form SUV.
10 mM stock solutions of vesicles were diluted separately to 400 μM and 80 μM in pH 7.5, 50 mM HEPES buffer. […] The sensors were dissolved to a concentration of 50 μM (from 800 μM stock solutions in 100% DMSO) in 50 mM HEPES, pH 7.5, 10% DMSO buffer. […] Fluorescence intensities measured were used to calculate the following parameters: ΔFIexc, ΔΔFIexc, ΔFImon, ΔΔFImon, ΔΔFIexc/mon and ΔΔΔFI. The following equations were used for the calculations: […]
Of these, PC and PE represented the zwitterionic vesicles; PS (−1), PA (−1), PG (−1) and CL (−2) represented the negatively charged vesicles.
(§3) The fluorescence enhancement of the excimer (ΔFIexc) species in the presence of vesicles was calculated using equation 1, which is defined as the ratio of the emission intensities of the sensor-vesicle sample and the sensor alone.

[5] = test system: zwitterionic vesicles (PC, PE); test: Vesicle fluorescence intensity experiments, zwitterionic vesicles; format: binding; conditions: sensor 25 μM; vesicles up to 200 μM; λex/em 350/476 nm
Method: as §2
10 mM stock solutions of vesicles were diluted separately to 400 μM and 80 μM in pH 7.5, 50 mM HEPES buffer. […] Fluorescence intensities measured were used to calculate the following parameters: ΔFIexc, ΔΔFIexc, ΔFImon, ΔΔFImon, ΔΔFIexc/mon and ΔΔΔFI. […]
as §3

[6] = test system: TOCL (CL) negatively charged vesicles; test: Serial dilution vesicle fluorescence intensity experiments, CL vesicles; format: binding; design: ΔΔFI: unit not given here; conditions: sensor 25 μM (PSVue™380 1 μM), 50 mM HEPES, 5% DMSO, pH 7.5
Source text: as §1

[7] = test system: Gram-positive bacteria (B. subtilis, B. megaterium, M. luteus, S. epidermidis); conditions: sensor 10 μM; λex/em 350/476 nm
Method: Bacteria samples were titrated from 10^8-10^10 cells/mL in a large-volume 12 well plate. Bacteria samples were added to black 384-well plates in triplicate.

[8] = test system: POPA (PA) negatively charged vesicles; test: Serial dilution vesicle fluorescence intensity experiments, PA vesicles; format: binding; conditions: for ΔΔFI: PA vesicles, sensor 25 μM (PSVue™380 1 μM), 50 mM HEPES, 5% DMSO, pH 7.5
Source text: as §1

[9] = test system: DOPS (PS) negatively charged vesicles; test: Serial dilution vesicle fluorescence intensity experiments, PS vesicles; format: binding; design: ΔΔFI: unit not given here; conditions: for ΔΔFI: sensor 25 μM (PSVue™380 1 μM), 50 mM HEPES, 5% DMSO, pH 7.5
[10] = test system: POPE (PE) zwitterionic vesicles; test: Serial dilution vesicle fluorescence intensity experiments, PE vesicles; format: binding; conditions: sensor 25 μM (PSVue™380 1 μM), 50 mM HEPES, 5% DMSO, pH 7.5
Source text: as §1

[11] = test system: DOPS (PS) negatively charged vesicles; test: Serial dilution vesicle fluorescence intensity experiments, PS vesicles; format: binding; design: ΔΔFI: unit not given here; conditions: for ΔΔFI: sensor 25 μM (PSVue™380 1 μM), 50 mM HEPES, 5% DMSO, pH 7.5; remark: listed apart in the source
Source text: as §1
It is estimated that a mammalian cell membrane is composed of 10% PS, with the majority located on the inner leaflet in the healthy state. However, during the early stages of apoptosis, this asymmetry is lost and PS becomes symmetrically distributed resulting in ˜5% of PS externalized to the outer leaflet. To address if compounds of this application could potentially be used for the detection of the PS externalization event during apoptosis, the exemplary sensors were screened against PC vesicles containing biologically-relevant levels of PS ([…]; assuming that approximately half of the lipid head groups will be exposed to the interior of the vesicle). The resulting ΔΔFI for vesicle concentrations up to 40 μM are presented in FIG. 7 and Table 1 (ΔΔFI for vesicle concentrations up to 200 μM is presented in FIG. 4).

[12] = test system: camptothecin treated MOLM-13 cells; test: Apoptosis detection by flow cytometry; format: cell-based; conditions: camptothecin 10 μM, 7 hrs; I-3 50 μM, PSVue™380 90.9 μM
Method: MOLM-13 cells were cultured in Roswell Park Memorial Institute (RPMI)-1640 Medium supplemented with 10% FCS and 1% antibiotic/antimycotic (Gibco, cat. 15240062).
MOLM-13 cells were cultured to a density of 5.0×10^5 cells/mL in regular media and transferred to 6-well tissue culture treated plates (1.0×10^6 cells/well). Treated Cells. Camptothecin (100 μL of 210 μM camptothecin in media) was added to a final concentration of 10 μM (1% DMSO final). Untreated Cells. DMSO Vehicle (100 μL DMSO in media) was added (1% DMSO final). All cells were then incubated at 37° C. for 7 hrs. […] Cell samples were then treated simultaneously with either 1) exemplary compound I-3 (in HEPES buffer, final concentration of 50 μM), and propidium iodide (0.02 μg/μL) or 2) PSVue™380 (in HEPES buffer, final concentration of 90.9 μM as previously reported^39) and propidium iodide (0.02 μg/μL). Samples were then incubated for 15 min away from light at 37° C. and were then analyzed by flow cytometry (CytoFLEX S, BeckmanCoulter) using the near UV laser (exc: 375 nm, emi: 450/45 nm) and blue laser (exc: 488 nm, emi: 585/42 nm). Gates were set off of single stain samples.

[13] = test system: WT and mutant E. coli strains; test: Bacteria mutant strain knockout fluorimetry, E. coli; format: cell-based; conditions: sensor 10 μM; 10^8 CFUs/mL
Source text: (§4) Fluorescence intensities were used to calculate the excimer emission in response to bacterial strains. Measurements were averaged over two triplicates.

PA vesicles = test: Zinc metalation fluorescence experiments; format: binding
Method: Vesicle fluorescence intensity experiments were performed in the absence or presence of zinc(II) (trifluoromethanesulfonate salt). Unmetallated PSVue™380 (PSVue™380*) was also included for reference.
All glassware was treated with 0.1 M HCl overnight, rinsed three times with MilliQ water, and oven dried. […] The sensor-zinc solutions were then combined with PA vesicles, prepared as described above, incubated as described above and the fluorescence emission intensity was then measured as described above.
In an effort to eliminate this possibility, all glassware was acid-treated and all buffers were chelex-treated to remove any metals, and the screens were repeated with PA vesicles. For these experiments, original non-normalized FIexc values were analyzed.

[14] = test system: WT and mutant B. subtilis strains; test: Bacteria mutant strain knockout fluorimetry, B. subtilis; format: cell-based; conditions: sensor 10 μM; 10^8 CFUs/mL
Source text: as §4

[15] = 33% CL vesicles, 20 μM vesicles
[16] = CL vesicles (50%), 5 μM vesicles
[17] = CL vesicles (50%), 20 μM vesicles
[18] = 75% PS vesicles, 20 μM vesicles
[19] = PS vesicles (50%), 5 μM vesicles
[20] = PS vesicles (50%), 20 μM vesicles
[21] = 25% PS vesicles, 20 μM vesicles

SMILES | ΔΔFI ([1]; 5 μM vesicles) | ΔΔFI ([1]; 20 μM vesicles) | ΔΔFI ([6]; 33% CL vesicles, 5 μM vesicles) | ΔΔFI [6, 15] | ΔΔFI [6, 16] | ΔΔFI [6, 17] | detection of Gram-positive bacteria with a fluorometer in bulk solution [7] | ΔΔFI ([8]; 5 μM vesicles) | ΔΔFI ([8]; 20 μM vesicles) | ΔΔFI ([9]; 75% PS vesicles, 5 μM vesicles) | ΔΔFI [9, 18] | ΔΔFI [9, 19] | ΔΔFI [9, 20] | ΔΔFI ([10]; 5 μM vesicles) | ΔΔFI ([10]; 20 μM vesicles) | ΔΔFI ([11]; 5% PS vesicles, 5 μM vesicles) | ΔΔFI ([11]; 5% PS vesicles, 20 μM vesicles) | ΔΔFI ([11]; 25% PS vesicles, 5 μM vesicles) | ΔΔFI [11, 21] | also measured
c1cc2ccc3ccc(CN4CCNCCNCCNCC4)c4ccc(c1)c2c34 [I-1] | 2.6 | 5.4 | 2.8 | 6.6 | 3.3 | 10.6 | can detect Gram-positive bacteria | 2.9 | 9.5 | 3.3 | 9.4 | 2.6 | 6.6 | 1 | 1 | 1.3 | 2.2 | 1.5 | 2.9 | sensing of increasing amounts of E. coli (ΔFI, ΔΔFI) [2]: capable of sensing increasing amounts of bacteria; detection of bacteria using a flow cytometer [3]: suitable for the detection of bacteria; linear response, vesicle concentration range ([4]; 25 μM sensor): 2 to 40 µM; ΔFIexc for all negatively charged vesicles ([4]; sensor 25 μM, vesicles up to 200 μM, λex/em 350/476 nm): ≥ 5; ΔFIexc for zwitterionic vesicles [5]: ~1; linear response, upper vesicle concentration for PA ([8]; 25 μM sensor): 50 µM; ΔFI with PA vesicles ([8]; 50 μM PA vesicle concentration, sensor 25 μM): 20
c1cc2ccc3ccc(CN4CCCNCCNCCCNCC4)c4ccc(c1)c2c34 [I-3] | 2.4 | 6.2 | 2.4 | 6 | 4.1 | 10.2 | can detect Gram-positive bacteria | 7.7 | 23.2 | 6.5 | 15.6 | 3.5 | 9.8 | 1 | 1 | 1.8 | 3.5 | 2.2 | 5.3 | sensing PA compared to PSVue™380 ([8]; Table 1 comparison): superior; ΔΔFI for PA vesicles (FIG. 4) ([8]; sensor 25 μM, vesicles 0-200 μM): ~25; sensitivity compared to PSVue™380, 5 μM PS vesicles ([9]; 5 μM PS vesicles): comparable; detection of PC vesicles containing 5 and 25% PS ([11]; 5 and 25% PS, corresponding to 2.5 and 12.5% of PS exposed to solution): efficiently detected; detection of early apoptotic cells (propidium iodide co-stain) [12]: detects a population of cells, undetected by the dead cell stain propidium iodide
c1cc2ccc3ccc(CCCCN4CCCNCCNCCCNCC4)c4ccc(c1)c2c34 [II-4] |  |  |  |  |  |  |  |  |  |  |  |  |  |  |  |  |  |  |  | fluorescence fold of mutant E. coli strains compared to WT [13]: general decrease in fluorescence fold intensity; FIexc response to increasing PA vesicle concentrations, unmetallated (PA vesicles; acid-treated glassware, chelex-treated buffers, non-normalized FIexc): comparable responses; ability to detect PA vesicles in the absence of Zn^2+ (ΔFI) (PA vesicles; unmetallated sensors, PA vesicles 0-200 μM): retained their ability to detect PA; fluorescence fold of mutant B. subtilis strains compared to WT [14]: no changes
